Ends that are not written are not given here.
B1: BMP4: BMP signal transduction pathway activating substance (protein, UniProt P12644 293-408, looked up)
Bone morphogenetic protein 4: SPKHHSQRARKKNKNCRRHSLYVDFSDVGWNDWIVAPPGYQAFYCHGDCPFPLADHLNSTNHAIVQTLVNSVNSSIPKACCVPTELSAISMLYLDEYDKVVLKNYQEMVVEGCGCR

Experiments:
Format in all cases: cell-based
[1] = test system: cell aggregates containing pituitary tissue from human ES cells (KhES-1 strain); test: ACTH stimulation/suppression test by CRH or dexamethasone in cell aggregates containing pituitary tissue (Example 14); details: 24 hr, cell aggregates on day 103
Procedure: Cell aggregates containing pituitary tissue were produced in the same manner as in Example 10, and ACTH secretory capacity was studied. 20 cell aggregates with different numbers of culture days after the start of suspension culturing were transferred to a 10 cm suspension culture dish containing 10 mL of serum-free medium supplemented with 20% KSR, and after culturing for 3-4 days at 37° C., the culture supernatant was recovered. The ACTH concentration in the recovered culture supernatant was measured by the ELISA method used in clinical testing (testing outsourced to SRL, Ltd.). As a result, ACTH secretion was observed from day 29 after the start of suspension culturing (23 pg/mL), and the amount of ACTH secretion increased remarkably as the number of days of culture increased (FIG. 17A).
Then, it was studied whether an increase in ACTH secretion by CRH and suppression of ACTH secretion by glucocorticoid were observed. Specifically, 20 cell aggregates on day 103 after the start of suspension culturing were transferred to a 10 cm suspension culture dish containing 10 mL of serum-free medium supplemented with 20% KSR, and after culturing for 24 hr under conditions of 37° C., […], the culture supernatant was recovered. […] The ACTH concentration in the recovered culture supernatant was measured as described above. […]

[2] = test system: human ES cells (RAX::Venus knock-in KhES-1 strain); test: Addition period of IWP2, SB431542 and BMP4, immunostaining of PITX1, LHX3, E-cadherin on day 29 (Reference Example 2); details: IWP2 (2 μM) and SB431542 (1 μM) added day 0 to day 29 and BMP4 (5 nM) day 2 to day 6, vs other addition periods
Procedure: After performing step a, suspension culturing was performed in a medium containing a Wnt signal inhibitor IWP2 (2 μM) and a TGFβ signal inhibitor SB431542 (1 μM) in addition to BMP4 (5 nM) and SAG (100 nM (step (1)) or 2 μM (step (2)). IWP2 and SB431542 were added during the period from day 0 to day 6 after the start of suspension culturing (FIG. 8B-1), from day 0 to day 12 after the start of suspension culturing (FIG. 8B-2), or from day 0 to day 29 after the start of suspension culturing (FIG. 8B-3). BMP4 was added during the period from day 2 to day 6 after the start of suspension culturing (upper panel of each of FIGS. 8B-1 to -3) or from day 2 to day 18 after the start of suspension culturing (lower panel of each of FIGS. 8B-1 to -3). Using cell aggregates on day 29 after the start of suspension culturing, cryosections were prepared in the same manner as in Example 3. These cryosections were subjected to immunostaining using PITX1 (anti-Pitx1 antibody, homemade) and antibody against epithelial cell marker E-cadherin (manufactured by Takara Bio Inc.). As a result, it was confirmed that the outside of the aggregate was a nonneural epithelial tissue that was positive for PITX1 and E-cadherin, and the inside was a neural epithelial tissue that was positive for RAX::Venus (FIGS. 8B-1 to -3).
The scale bar at the bottom right of FIGS. 8B-1 to -3 indicates 200 μm.

[3] = test system: human ES cells (KhES-1 strain); test: Concentration of IWP2, BMP4 and SAG, ACTH concentration in culture medium (Reference Example 3); details: combination: low (IWP2 0.5 μM, BMP4 0.5 nM, SAG 700 nM) vs high (IWP2 2 μM, BMP4 5 nM, SAG 2 μM); days 61-250
Procedure: Then, for the purpose of examining the optimal concentrations of IWP2, BMP4, and SAG to be added in each step, two groups of a high concentration group (IWP2; 2 μM, BMP4; 5 nM, SAG; 2 μM) and a low concentration group (IWP2; 0.5 μM, BMP4; 0.5 nM, SAG; 700 nM) were established, and a comparative study was conducted using the ACTH concentration in the culture medium on days 61, 103, 152, 201, and 250 of differentiation induction as an indicator. Using human ES cells (KhES-1 strain) and according to step shown in FIG. 9A, a cell population including cells that constitute pituitary tissue was produced. Using the method described in Example 4, the concentration of ACTH in the medium was measured.

[4] = test system: human iPS cell line 1231A3; test: Effect of substance reducing oxidative stress on pituitary organoid production, bright field observation (Example 6); details: 1 mM from day 10; day 30 of differentiation induction
[5] = test system: human iPS cells (201B7 strain); test: SAG addition period and ACTH secretion capacity of cell aggregates (Example 9); details: stopping SAG treatment 30 days after start of differentiation induction vs continued SAG treatment
Procedure: Using human iPS cells (201B7 strain) and according to the steps shown in FIG. 12A, cell aggregates were produced. Regarding the SAG treatment period, two groups of a group in which SAG is added from immediately after the start of differentiation induction until day 30, and a group in which SAG is added from immediately after the start of differentiation induction and after day 30 (until day 61, until day 103, and until day 131) were set, and the ACTH secretion capacity was compared. ACTH was measured by a method similar to that in Example 4.

[6] = test system: human iPS cells (1231A3 strain); test: Timing of BMP4 addition under JNK inhibitor addition conditions, oblique illumination observation (Example 17); details: BMP4 added after 24 hr (day 1) vs about 48 hr (day 2); JNK inhibitor present; day 28
Procedure: In Example 17, a cell population containing cells constituting pituitary tissue was produced according to the steps shown in FIG. 20A. Specifically, human iPS cells (1231A3 strain, obtained from RIKEN) were cultured under feeder-free conditions according to the method described in Scientific Reports, 4, 3594 (2014). As the feeder-free medium, StemFit medium was used and, as the feeder-free scaffold, Laminin 511-E8 was used.
Differentiation induction was performed under the same conditions as in Example 1, except that the addition conditions of BMP4 and the final concentration of IWP-2 were changed to 1 μM. As a condition for adding BMP4, step (2) was performed about 24 hr (day 1) and about 48 hr (day 2) after the start of differentiation induction.
On day 28 after the start of suspension culturing, oblique illumination observation was performed using an inverted fluorescence microscope (BIOREVO BZ-X800, manufactured by Keyence Corporation) (FIG. 20B). As a result, pituitary organoid with placode-like pituitary tissue observed as a thick, highly transparent epithelium on the surface of the cell mass was formed, under both BMP4 addition conditions of about 24 hr (day 1) and about 48 hr (day 2) after the start of differentiation induction. […]

Row | Molecule | formation of PITX1-positive and E-cadherin-positive nonneural epithelial tissue [2] | ACTH concentration in the culture medium, low concentration group vs high concentration group [3] | also measured
1 | C[C@@H]1C[C@H]2[C@@H]3CCC4=CC(=O)C=C[C@]4(C)[C@@]3(F)[C@@H](O)C[C@]2(C)[C@@]1(O)C(=O)CO [DX, dexamethasone] |  |  | reduction of the amount of ACTH secretion ([1]; 500 ng/mL): about 40%
2 | Cc1ccc2nc(NC(=O)CSc3nc4c(c(=O)n3-c3ccccc3)SCC4)sc2c1 [IWP2, N-(6-Methyl-2-benzothiazolyl)-2-[(3,4,6,7-tetrahydro-4-oxo-3-phenylthieno[3,2-d]pyrimidin-2-yl)thio]acetamide] | highest probability | higher | 
3 | CC(=O)N[C@@H](CS)C(=O)O [NAC, N-acetylcysteine] |  |  | cell masses smaller in diameter than in the non-addition conditions [4]: about 50 μm; proliferation of unintended cells [4]: suppressed
4 | CNC1CCC(N(Cc2cccc(-c3ccncc3)c2)C(=O)c2sc3ccccc3c2Cl)CC1 (stereo not drawn) [SAG, N-Methyl-N′-(3-pyridinylbenzyl)-N′-(3-chlorobenzo[b]thiophene-2-carbonyl)-1,4-diaminocyclohexane] |  | higher | ACTH secretion capacity [5]: improved
5 | NC(=O)c1ccc(-c2nc(-c3ccc4c(c3)OCO4)c(-c3ccccn3)[nH]2)cc1 [SB431542, 4-[4-(3,4-Methylenedioxyphenyl)-5-(2-pyridyl)-1H-imidazol-2-yl]benzamide] | highest probability |  | 
6 | CRH: CRH (manufactured by Nipro ES Pharma) used to stimulate ACTH secretion (SEEPPISLDLTFHLLREVLEMARAEQLAQQAHSNRKLMEII; ends and bridges not checked; UniProt P06850 154-194, looked up) |  |  | increase of ACTH secretion amount ([1]; 5 μg/mL): about 3 times
7 | B1 | highest probability | higher | size of the pituitary organoids formed [6]: more uniform
